# From US4357425A, “Process for producing L-amino acid oxidase” (Toyo Jozo Company, Ltd., priority 1980, dated 1982)
# “And” between values parts separate entries of the source, which are not always exact repeats. Identical values can stand only once.
# Test system: L-amino acid oxidase
# Experiment: Substrate specificity of L-amino acid oxidase (enzyme activity measurement, H2O2 colorimetry)
# Assay type: biochemical, Colletotrichum sp. M5073
# Settings: not given
# Experimental: (§1) 0.9 ml of a reaction solution of the following composition is placed in a small test tube and warmed to 37° C.
# (§2) 0.1 ml of a liquid containing L-amino acid oxidase is added thereto and reaction continued for exactly for 10 minutes at 37° C. The reaction was terminated by adding 2.0 ml of ethanol. Then, the amount of hydrogen peroxide formed is colorimetrically determined from absorbance measured at 480 nm. The enzymatic activity is determined from the amount of the hydrogen peroxide formed with the following equation: […]
# (§3) The amount of the enzyme which produces 1μ mole of hydrogen peroxide at 37° C. in one minute is defined as one unit (1 U).
# Enzymatic activities of the enzyme on various substrates as shown in the Table 1 below are measured with the same procedures as the measurement of the enzyme activity by using 5 m mole of the substrate and 0.007 U of the enzyme.
row,Structure (SMILES),Enzyme acts upon substrate
1,CC(C)C[C@H](N)C(=O)O [L-Leucine],acts upon

# Same assay, conditions: 5 m mole of the substrate, 0.007 U of the enzyme; 37° C., 10 minutes; L-Leucine = 100
row,Structure (SMILES),Relative activity (%) on substrate
1,NCC(=O)O [L-Glycin],0.0%
2,N[C@@H](CCC(=O)O)C(=O)O [L-Glutamic acid],0.0%
3,N[C@H](Cc1ccccc1)C(=O)O [D-Phenylalanine],0.0%
4,CC[C@H](C)[C@H](N)C(=O)O (racemic) [DL-Isoleucine],15.3%
5,N[C@@H](Cc1c[nH]cn1)C(=O)O [L-Histidine],11.8%
6,NCCCC[C@H](N)C(=O)O [L-Lysine],29.6%
7,N=C(N)NCCC[C@H](N)C(=O)O [L-Arginine],39.9%
8,C[C@H](N)C(=O)O [L-Alanine],12.3%
9,CSCC[C@H](N)C(=O)O [L-Methionine],93.6%
10,CC(C)C[C@H](N)C(=O)O [L-Leucine],100.0%
11,N[C@@H](Cc1ccc(O)cc1)C(=O)O [L-Tyrosine],22.2%
12,N[C@@H](CO)C(=O)O [L-Serine],0.0%
13,N[C@@H](CS)C(=O)O [L-Cysteine],6.4% and 0.0%
14,NC(Cc1c[nH]c2ccccc12)C(=O)O (racemic) [DL-Tryptophan],27.1%
15,C[C@@H](N)C(=O)O [D-Alanine],0.0%
16,N[C@@H](Cc1ccccc1)C(=O)O [L-Phenylalanine],70.0%
17,N[C@@H](CC(=O)O)C(=O)O [L-Aspartic acid],0.0%
18,CC[C@H](C)[C@H](N)C(=O)O [L-Isoleucine],29.1%

# Test system: L-amino acid oxidase
# Experiment: Km value of L-amino acid oxidase
# Assay type: biochemical, Colletotrichum sp. M5073
# Settings: upon L-leucine
row,Structure (SMILES),Km
1,CC(C)C[C@H](N)C(=O)O [L-Leucine],170 µM

# Test system: L-amino acid oxidase
# Experiment: Inhibition and activation of L-amino acid oxidase by metallic ions or other additives
# Assay type: biochemical, Colletotrichum sp. M5073
# Settings: 1 mM additive, 0.01 U of the enzyme; None = 100
# Experimental: as §1, §2, §3
# The enzymatic activities of the enzyme are measured with the same procedures as the measurement of the enzyme activity using 0.01 U of the enzyme, and adding 1 mM of various metallic ions or other additives as shown in Table 2 below to the reaction solution. Cyano ion has a strong inhibiting effect on the enzyme and no ion is found to have an activating effect on the enzyme.
row,Structure (SMILES),Relative activity (%) with additive
1,O=C(O)CN(CCN(CC(=O)O)CC(=O)O)CC(=O)O [EDTA],100%
2,[Cl-].[Cl-].[Co+2] [CoCl2],50.6%
3,[F-].[Na+] [NaF],97.9%
4,[N-]=[N+]=[N-].[Na+] [NaN3],100%
5,[Cl][Mn][Cl] [MnCl2],97.1%
6,Cl.N [NH4 Cl],97.1%
7,[Cl-].[Cl-].[Mg+2] [MgCl2],99.2%
8,[Ba+2].[Cl-].[Cl-] [BaCl2],97.1%
9,[Cl-].[Li+] [LiCl],97.5%
10,[Ca+2].[Cl-].[Cl-] [CaCl2],95.4%
11,[Cl-].[Cl-].[Zn+2] [ZnCl2],94.2%
